Measured values: article PMC12305494, “Discovery of PXR Antagonist MI891 and PXR Degrader MI1013 and Their Roles in Hepatic Gene Regulation” (Journal of Medicinal Chemistry, 2025)

Key:
[1] = molecular target: T1, LXRβ (Homo sapiens, UniProt P55055); assay: LXRβ luciferase reporter assay, agonistic and antagonistic setups; type: cell-based; conditions: prototype ligand GW3965
T1 construct: expressed in transfected cells
Protocol: For the farnesoid X receptor (FXR) luciferase gene reporter assay, the full-length expression vector was paired with pFXRE-luc luciferase construct. The p1A1-luc construct was used in the aryl hydrocarbon receptor (AhR) assays with pRL-TK for normalization. Gal4-LXR-α/β, and Gal4-PPAR-γ constructs were used with the pGAL4 UAS-luc construct. For the VDR assay, expression vector pSG5-hVDR together with pVDRE-luc constructs was used. Firefly and Renilla luciferase activities were analyzed using a Dual reporter assay (Promega). For the nuclear receptor assays, prototype ligands were used at the following concentrations: Calcitriol for VDR (100 nM), GW3965 for LXRα and LXRβ (10 μM), 6-OCA for FXR (1 μM), fenofibrate for PPARα (10 μM), estradiol for ERα and β (10 μM), rosiglitazone for PPARγ (10 μM), 3-MC for AhR (5 μM), and TCPOBOP for mCAR (10 μM). Detailed descriptions and protocols are detailed in our recent publication. ,

[2] = molecular target: T2, Pim-1(h) (Homo sapiens, UniProt P11309); assay: Off-target kinase panel; type: biochemical
T2 construct: purchased Eurofins (Millipore) KinaseProfiler, inferred from the naming style
Protocol: (§1) To evaluate the selectivity of MI891, an off-target profiling study was performed using a panel of 58 kinases.

[3] = molecular target: CK2α2(h) (Homo sapiens, UniProt P19784); assay: Off-target kinase panel; type: biochemical; conditions: MI891 @ 1 µM
Protocol: as §1

[4] = molecular target: T3, PKA(h) (Homo sapiens, UniProt P17612); assay: Off-target kinase panel; type: biochemical; conditions: MI891 @ 1 µM
T3 construct: purchased Eurofins (Millipore) KinaseProfiler, inferred from the naming style
Protocol: as §1

[5] = molecular target: T4, PI3 Kinase (p110d/p85a)(h) (Homo sapiens, UniProt O00329); assay: Off-target kinase panel; type: biochemical; conditions: MI891 @ 1 µM
T4 construct: purchased Eurofins (Millipore) KinaseProfiler, inferred from the naming style
Protocol: as §1

[6] = molecular target: ALK(h) (Homo sapiens, UniProt Q9UM73); assay: Off-target kinase panel; type: biochemical; conditions: MI891 @ 1 µM
Protocol: as §1

[7] = molecular target: T5, KDR(h) (Homo sapiens, UniProt P35968); assay: Off-target kinase panel; type: biochemical; conditions: MI891 @ 1 µM
T5 construct: purchased Eurofins (Millipore) KinaseProfiler, inferred from the naming style
Protocol: as §1

[8] = molecular target: T6, PKG1α(h) (Homo sapiens, UniProt Q13976); assay: Off-target kinase panel; type: biochemical; conditions: MI891 @ 1 µM
T6 construct: purchased Eurofins (Millipore) KinaseProfiler, inferred from the naming style
Protocol: as §1

[9] = molecular target: eEF-2K(h) (Homo sapiens, UniProt O00418); assay: Off-target kinase panel; type: biochemical; conditions: MI891 @ 1 µM
Protocol: as §1

[10] = molecular target: T7, PKCα(h) (Homo sapiens, UniProt P17252); assay: Off-target kinase panel; type: biochemical; conditions: MI891 @ 1 µM
T7 construct: purchased Eurofins (Millipore) KinaseProfiler, inferred from the naming style
Protocol: as §1

[11] = molecular target: T8, PI3 Kinase (p110a/p85a)(h) (Homo sapiens, UniProt P42336); assay: Off-target kinase panel; type: biochemical; conditions: MI891 @ 1 µM
T8 construct: purchased Eurofins (Millipore) KinaseProfiler, inferred from the naming style
Protocol: as §1

[12] = molecular target: T9, MSK2(h) (Homo sapiens, UniProt O75676); assay: Off-target kinase panel; type: biochemical; conditions: MI891 @ 1 µM
T9 construct: purchased Eurofins (Millipore) KinaseProfiler, inferred from the naming style
Protocol: as §1

[13] = molecular target: EphB4(h) (Homo sapiens, UniProt P54760); assay: Off-target kinase panel; type: biochemical; conditions: MI891 @ 1 µM
Protocol: as §1

[14] = molecular target: GSK3β(h) (Homo sapiens, UniProt P49841); assay: Off-target kinase panel; type: biochemical; conditions: MI891 @ 1 µM
Protocol: as §1

[15] = molecular target: c-RAF(h) (Homo sapiens, UniProt P04049); assay: Off-target kinase panel; type: biochemical; conditions: MI891 @ 1 µM
Protocol: as §1

[16] = molecular target: IGF-1R(h) (Homo sapiens, UniProt P08069); assay: Off-target kinase panel; type: biochemical; conditions: MI891 @ 1 µM
Protocol: as §1

[17] = molecular target: Aurora-A(h) (Homo sapiens, UniProt O14965); assay: Off-target kinase panel; type: biochemical; conditions: MI891 @ 1 µM
Protocol: as §1

[18] = molecular target: T10, IRAK4(h) (Homo sapiens, UniProt Q9NWZ3); assay: Off-target kinase panel; type: biochemical; conditions: MI891 @ 1 µM
T10 construct: purchased Eurofins (Millipore) KinaseProfiler, inferred from the naming style
Protocol: as §1

[19] = molecular target: AMPKα1(h) (Homo sapiens, UniProt Q13131); assay: Off-target kinase panel; type: biochemical; conditions: MI891 @ 1 µM
Protocol: as §1

[20] = molecular target: T11, SRPK1(h) (Homo sapiens, UniProt Q96SB4); assay: Off-target kinase panel; type: biochemical; conditions: MI891 @ 1 µM
T11 construct: purchased Eurofins (Millipore) KinaseProfiler, inferred from the naming style
Protocol: as §1

[21] = molecular target: T12, MLK1(h) (Homo sapiens, UniProt P80192); assay: Off-target kinase panel; type: biochemical; conditions: MI891 @ 1 µM
T12 construct: purchased Eurofins (Millipore) KinaseProfiler, inferred from the naming style
Protocol: as §1

[22] = molecular target: CHK1(h) (Homo sapiens, UniProt O14757); assay: Off-target kinase panel; type: biochemical; conditions: MI891 @ 1 µM
Protocol: as §1

[23] = molecular target: T13, ROCK-I(h) (Homo sapiens, UniProt Q13464); assay: Off-target kinase panel; type: biochemical; conditions: MI891 @ 1 µM
T13 construct: purchased Eurofins (Millipore) KinaseProfiler, inferred from the naming style
Protocol: as §1

[24] = molecular target: T14, p70S6K(h) (Homo sapiens, UniProt P23443); assay: Off-target kinase panel; type: biochemical; conditions: MI891 @ 1 µM
T14 construct: purchased Eurofins (Millipore) KinaseProfiler, inferred from the naming style
Protocol: as §1

[25] = molecular target: Abl(h) (Homo sapiens, UniProt P00519); assay: Off-target kinase panel; type: biochemical; conditions: MI891 @ 1 µM
Protocol: as §1

[26] = molecular target: T15, Rse(h) (Homo sapiens, UniProt Q06418); assay: Off-target kinase panel; type: biochemical; conditions: MI891 @ 1 µM
T15 construct: purchased Eurofins (Millipore) KinaseProfiler, inferred from the naming style
Protocol: as §1

[27] = molecular target: T16, TAK1(h) (Homo sapiens, UniProt O43318); assay: Off-target kinase panel; type: biochemical; conditions: MI891 @ 1 µM
T16 construct: purchased Eurofins (Millipore) KinaseProfiler, inferred from the naming style
Protocol: as §1

[28] = molecular target: T17, Rsk1(h) (Homo sapiens, UniProt Q15418); assay: Off-target kinase panel; type: biochemical; conditions: MI891 @ 1 µM
T17 construct: purchased Eurofins (Millipore) KinaseProfiler, inferred from the naming style
Protocol: as §1

[29] = molecular target: T18, LOK(h) (Homo sapiens, UniProt O94804); assay: Off-target kinase panel; type: biochemical; conditions: MI891 @ 1 µM
T18 construct: purchased Eurofins (Millipore) KinaseProfiler, inferred from the naming style
Protocol: as §1

[30] = molecular target: CDK1/cyclinB(h) (Homo sapiens, UniProt P06493); assay: Off-target kinase panel; type: biochemical; conditions: MI891 @ 1 µM
Protocol: as §1

[31] = molecular target: DRAK1(h) (Homo sapiens, UniProt Q9UEE5); assay: Off-target kinase panel; type: biochemical; conditions: MI891 @ 1 µM
Protocol: as §1

T2 sequence (P11309 whole entry): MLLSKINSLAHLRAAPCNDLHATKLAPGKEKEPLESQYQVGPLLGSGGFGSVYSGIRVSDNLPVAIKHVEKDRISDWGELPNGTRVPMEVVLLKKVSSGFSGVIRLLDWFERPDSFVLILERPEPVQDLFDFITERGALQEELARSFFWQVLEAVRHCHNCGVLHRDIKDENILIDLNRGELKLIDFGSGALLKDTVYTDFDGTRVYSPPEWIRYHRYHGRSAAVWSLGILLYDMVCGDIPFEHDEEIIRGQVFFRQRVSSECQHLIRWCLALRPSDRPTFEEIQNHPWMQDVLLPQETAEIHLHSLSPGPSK
Chain of GSK3β(h) (P49841 whole entry): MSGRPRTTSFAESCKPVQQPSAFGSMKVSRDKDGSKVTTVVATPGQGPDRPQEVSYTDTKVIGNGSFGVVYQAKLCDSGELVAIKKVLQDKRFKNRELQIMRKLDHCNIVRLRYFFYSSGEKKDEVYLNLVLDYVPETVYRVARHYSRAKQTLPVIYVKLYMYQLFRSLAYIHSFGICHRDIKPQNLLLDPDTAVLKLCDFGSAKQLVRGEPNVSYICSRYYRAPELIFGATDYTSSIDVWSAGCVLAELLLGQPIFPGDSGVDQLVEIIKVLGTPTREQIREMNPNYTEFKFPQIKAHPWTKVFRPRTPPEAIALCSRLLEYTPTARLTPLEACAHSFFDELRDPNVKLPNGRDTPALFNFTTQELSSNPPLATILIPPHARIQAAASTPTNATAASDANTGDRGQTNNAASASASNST
T10 sequence (Q9NWZ3 whole entry): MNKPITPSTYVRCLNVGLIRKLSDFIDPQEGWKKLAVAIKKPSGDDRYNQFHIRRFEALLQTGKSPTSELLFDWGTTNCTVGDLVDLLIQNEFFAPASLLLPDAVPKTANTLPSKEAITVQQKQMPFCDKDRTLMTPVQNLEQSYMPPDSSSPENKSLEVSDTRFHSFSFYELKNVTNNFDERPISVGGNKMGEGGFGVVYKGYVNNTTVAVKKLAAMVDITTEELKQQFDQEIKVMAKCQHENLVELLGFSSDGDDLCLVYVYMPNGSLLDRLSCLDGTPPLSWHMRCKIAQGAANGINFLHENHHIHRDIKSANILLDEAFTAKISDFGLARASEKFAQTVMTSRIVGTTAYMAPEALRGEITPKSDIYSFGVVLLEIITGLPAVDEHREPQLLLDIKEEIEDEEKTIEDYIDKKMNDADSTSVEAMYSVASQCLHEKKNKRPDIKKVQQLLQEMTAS
T15 sequence (Q06418 41-890): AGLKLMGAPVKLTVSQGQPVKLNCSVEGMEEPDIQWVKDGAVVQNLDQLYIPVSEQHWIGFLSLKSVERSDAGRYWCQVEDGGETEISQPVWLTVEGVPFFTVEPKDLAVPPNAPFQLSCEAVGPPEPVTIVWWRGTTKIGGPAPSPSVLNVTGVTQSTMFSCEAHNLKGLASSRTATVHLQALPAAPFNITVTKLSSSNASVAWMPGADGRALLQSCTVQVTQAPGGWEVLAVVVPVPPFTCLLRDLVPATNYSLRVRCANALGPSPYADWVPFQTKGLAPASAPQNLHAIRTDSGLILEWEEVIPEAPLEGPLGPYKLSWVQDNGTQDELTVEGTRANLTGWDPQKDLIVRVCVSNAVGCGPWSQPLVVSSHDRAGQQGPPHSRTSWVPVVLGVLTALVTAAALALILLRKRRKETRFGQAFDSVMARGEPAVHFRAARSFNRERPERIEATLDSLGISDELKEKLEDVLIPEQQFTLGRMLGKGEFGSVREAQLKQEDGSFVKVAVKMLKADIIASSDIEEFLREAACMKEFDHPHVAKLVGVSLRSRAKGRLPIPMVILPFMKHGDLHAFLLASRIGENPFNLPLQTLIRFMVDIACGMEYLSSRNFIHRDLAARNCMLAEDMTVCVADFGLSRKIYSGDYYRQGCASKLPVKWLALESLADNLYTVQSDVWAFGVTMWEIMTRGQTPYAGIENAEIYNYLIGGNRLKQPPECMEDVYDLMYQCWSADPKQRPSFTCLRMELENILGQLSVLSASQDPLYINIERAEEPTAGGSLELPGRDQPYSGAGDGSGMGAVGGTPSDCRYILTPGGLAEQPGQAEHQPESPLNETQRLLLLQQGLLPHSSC
T9 sequence (O75676 whole entry): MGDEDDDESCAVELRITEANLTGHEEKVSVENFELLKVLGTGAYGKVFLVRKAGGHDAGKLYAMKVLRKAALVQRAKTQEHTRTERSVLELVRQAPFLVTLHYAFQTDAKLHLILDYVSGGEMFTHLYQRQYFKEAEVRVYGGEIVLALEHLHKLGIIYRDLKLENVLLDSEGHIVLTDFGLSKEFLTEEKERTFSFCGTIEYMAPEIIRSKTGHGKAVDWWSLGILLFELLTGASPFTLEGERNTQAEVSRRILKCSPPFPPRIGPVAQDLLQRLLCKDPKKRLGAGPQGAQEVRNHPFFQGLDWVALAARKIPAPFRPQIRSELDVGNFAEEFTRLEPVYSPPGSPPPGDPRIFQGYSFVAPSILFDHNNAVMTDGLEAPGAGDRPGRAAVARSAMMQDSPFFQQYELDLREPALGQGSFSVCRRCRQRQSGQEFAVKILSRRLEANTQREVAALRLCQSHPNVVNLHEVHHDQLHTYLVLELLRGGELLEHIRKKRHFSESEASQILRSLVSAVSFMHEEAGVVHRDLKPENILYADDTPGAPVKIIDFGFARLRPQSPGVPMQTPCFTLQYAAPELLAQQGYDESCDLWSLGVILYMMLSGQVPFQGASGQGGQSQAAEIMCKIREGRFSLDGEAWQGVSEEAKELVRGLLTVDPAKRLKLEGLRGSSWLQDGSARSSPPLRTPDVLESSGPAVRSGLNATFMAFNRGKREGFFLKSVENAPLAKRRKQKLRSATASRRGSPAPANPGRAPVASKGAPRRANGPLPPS
Chain of IGF-1R(h) (P08069 31-1367): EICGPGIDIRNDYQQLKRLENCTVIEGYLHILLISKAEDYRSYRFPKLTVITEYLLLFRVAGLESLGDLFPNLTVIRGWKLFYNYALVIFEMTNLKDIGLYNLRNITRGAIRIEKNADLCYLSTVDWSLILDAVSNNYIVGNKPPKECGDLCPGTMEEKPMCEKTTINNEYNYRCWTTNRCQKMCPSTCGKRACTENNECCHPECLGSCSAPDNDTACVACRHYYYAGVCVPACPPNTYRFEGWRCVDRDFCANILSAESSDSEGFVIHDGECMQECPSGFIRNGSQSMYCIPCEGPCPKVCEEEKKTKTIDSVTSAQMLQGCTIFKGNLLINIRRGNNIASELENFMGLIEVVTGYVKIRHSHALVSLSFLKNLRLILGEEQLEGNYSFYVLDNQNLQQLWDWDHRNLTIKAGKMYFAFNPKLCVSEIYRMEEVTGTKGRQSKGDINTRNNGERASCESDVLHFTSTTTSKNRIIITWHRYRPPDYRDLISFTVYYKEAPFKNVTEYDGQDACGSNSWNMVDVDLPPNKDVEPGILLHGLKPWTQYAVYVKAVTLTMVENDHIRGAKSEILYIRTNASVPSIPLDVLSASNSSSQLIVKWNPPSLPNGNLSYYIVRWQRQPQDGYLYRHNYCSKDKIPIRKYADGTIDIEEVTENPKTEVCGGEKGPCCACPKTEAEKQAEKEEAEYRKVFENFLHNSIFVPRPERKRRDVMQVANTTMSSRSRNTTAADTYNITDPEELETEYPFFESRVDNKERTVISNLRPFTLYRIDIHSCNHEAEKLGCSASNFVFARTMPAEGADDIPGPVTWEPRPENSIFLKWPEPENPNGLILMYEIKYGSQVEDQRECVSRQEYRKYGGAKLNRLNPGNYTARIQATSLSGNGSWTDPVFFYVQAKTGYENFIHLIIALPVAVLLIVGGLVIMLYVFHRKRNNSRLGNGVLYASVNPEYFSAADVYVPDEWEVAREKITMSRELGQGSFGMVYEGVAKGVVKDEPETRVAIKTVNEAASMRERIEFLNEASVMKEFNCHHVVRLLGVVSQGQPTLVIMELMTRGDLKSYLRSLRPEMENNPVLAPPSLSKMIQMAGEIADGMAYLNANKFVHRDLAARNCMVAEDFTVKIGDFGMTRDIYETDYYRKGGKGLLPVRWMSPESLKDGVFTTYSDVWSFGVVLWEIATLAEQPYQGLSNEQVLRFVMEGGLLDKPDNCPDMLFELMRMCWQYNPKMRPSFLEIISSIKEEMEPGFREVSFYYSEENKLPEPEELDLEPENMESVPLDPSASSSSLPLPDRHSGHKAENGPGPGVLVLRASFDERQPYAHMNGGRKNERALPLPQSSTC
Chain of CK2α2(h) (P19784 whole entry): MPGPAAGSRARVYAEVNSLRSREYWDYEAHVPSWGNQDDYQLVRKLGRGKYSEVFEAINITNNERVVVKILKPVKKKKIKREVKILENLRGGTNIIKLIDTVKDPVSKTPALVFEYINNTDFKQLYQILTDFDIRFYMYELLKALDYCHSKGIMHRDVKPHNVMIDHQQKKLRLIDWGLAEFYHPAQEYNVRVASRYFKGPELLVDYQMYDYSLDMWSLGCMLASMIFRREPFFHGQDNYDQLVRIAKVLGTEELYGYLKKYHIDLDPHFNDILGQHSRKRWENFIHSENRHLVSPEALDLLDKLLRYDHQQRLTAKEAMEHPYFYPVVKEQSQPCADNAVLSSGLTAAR
Chain of Aurora-A(h) (O14965 whole entry): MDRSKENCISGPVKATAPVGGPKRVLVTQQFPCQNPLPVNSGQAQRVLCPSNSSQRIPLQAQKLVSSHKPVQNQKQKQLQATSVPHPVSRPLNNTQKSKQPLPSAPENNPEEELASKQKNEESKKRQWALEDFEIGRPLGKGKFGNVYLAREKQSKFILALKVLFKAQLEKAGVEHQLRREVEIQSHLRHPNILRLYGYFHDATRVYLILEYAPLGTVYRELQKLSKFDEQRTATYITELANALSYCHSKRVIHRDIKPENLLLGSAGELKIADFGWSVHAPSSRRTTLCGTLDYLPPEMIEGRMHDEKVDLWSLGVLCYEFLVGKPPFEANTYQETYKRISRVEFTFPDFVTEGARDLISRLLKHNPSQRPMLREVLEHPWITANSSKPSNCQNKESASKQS

- activity at 1 µM ([2]; MI891 @ 1 µM): 53%
- inhibition at 1 µM ([2]; at 1 μM): 53%
- activity at 1 µM [3]: 109%
- activity at 1 µM [4]: 108%
- activity at 1 µM [5]: 98%
- activity at 1 µM [6]: 76%
- activity at 1 µM [7]: 86%
- activity at 1 µM [8]: 85%
- activity at 1 µM [9]: 112%
- activity at 1 µM [10]: 97%
- activity at 1 µM [11]: 92%
- activity at 1 µM [12]: 110%
- activity at 1 µM [13]: 97%
- activity at 1 µM [14]: 99%
- activity at 1 µM [15]: 101%
- activity at 1 µM [16]: 99%
- activity at 1 µM [17]: 81%
- activity at 1 µM [18]: 112%
- activity at 1 µM [19]: 102%
- activity at 1 µM [20]: 98%
- activity at 1 µM [21]: 104%
- activity at 1 µM [22]: 93%
- activity at 1 µM [23]: 97%
- activity at 1 µM [24]: 105%
- activity at 1 µM [25]: 104%
- activity at 1 µM [26]: 109%
- activity at 1 µM [27]: 90%
- activity at 1 µM [28]: 129%
- activity at 1 µM [29]: 94%
- activity at 1 µM [30]: 96%
- activity at 1 µM [31]: 105%
SMILES: NC(=O)c1cc(Cn2cc(-c3c(-c4ccc(Cl)cc4)nc4c(F)cc(F)cn34)nn2)ccc1Cl [Compound 11, 2-Chloro-5-((4-(2-(4-chlorophenyl)-6,8-difluoroimidazo[1,2-a]pyridin-3-yl)-1H-1,2,3-triazol-1-yl)methyl)-benzamide]
- agonistic or antagonistic activity on LXRβ [1]: no significant agonistic or antagonistic activities
